Legend:
ACSS2 [1] = target: T1, ACSS2 (Homo sapiens, UniProt Q9NR19); test: cell-based
Description: Testing the inhibitory effect of compounds on the cellular activity of ACSS2 was done by tracing the incorporation of ^13C from ^13C-acetate into fatty-acids in MDA-MB-468 cells under hypoxic conditions of 1% 02. The assay was done for 5 hours in DMEM with 5.5 mM glucose, 1 mM sodium Pyruvate, 0.65 mM Glutamine, 3.5 ug/ml Biotin, 1% dialyzed serum, 0.5 mM 13C-acetate and with different concentrations of the inhibitors. At the end of the incubation, the cells were washed with cold PBS, harvested into glass tubes and undergo saponification. The level of ^13C incorporation into Palmitate was done by LC-MS analysis and the level of inhibition was calculated with PRISM software.

ACSS2 [2] = target: T1, ACSS2; test: biochemical

T1 sequence (Q9NR19 whole entry): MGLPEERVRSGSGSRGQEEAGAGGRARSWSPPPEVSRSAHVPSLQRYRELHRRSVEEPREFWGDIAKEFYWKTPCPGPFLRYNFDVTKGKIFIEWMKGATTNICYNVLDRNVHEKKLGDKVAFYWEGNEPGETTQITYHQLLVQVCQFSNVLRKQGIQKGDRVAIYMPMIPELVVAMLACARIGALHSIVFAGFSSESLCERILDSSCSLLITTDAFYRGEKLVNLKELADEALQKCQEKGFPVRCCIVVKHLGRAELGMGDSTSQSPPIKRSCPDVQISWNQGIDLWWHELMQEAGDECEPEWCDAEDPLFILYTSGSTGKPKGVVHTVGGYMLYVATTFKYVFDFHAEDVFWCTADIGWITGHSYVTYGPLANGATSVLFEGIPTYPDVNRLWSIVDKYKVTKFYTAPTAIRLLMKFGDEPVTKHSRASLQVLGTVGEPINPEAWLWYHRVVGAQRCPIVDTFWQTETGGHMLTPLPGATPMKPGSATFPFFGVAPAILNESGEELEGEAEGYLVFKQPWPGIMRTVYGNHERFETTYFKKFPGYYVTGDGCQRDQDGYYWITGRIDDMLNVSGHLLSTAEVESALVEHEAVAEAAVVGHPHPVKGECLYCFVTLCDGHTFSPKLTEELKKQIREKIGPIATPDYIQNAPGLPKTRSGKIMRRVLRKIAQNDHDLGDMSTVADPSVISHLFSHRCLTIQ

## CC(=O)Cc1cccc(NC(=O)C2C(=O)N(c3ccccc3)N=C2C)c1 (centres unmarked) [compound 145, 3-methyl-5-oxo-N-(3-(2-oxopropyl)phenyl)-1-phenyl-4,5-dihydro-1H-pyrazole-4-carboxamide]
ACSS2 [1]
  IC50: > 100 nM
ACSS2 [2]
  IC50: 0.01 to 6 nM

## CC1=NN(c2cccc(C(F)(F)F)c2)C(=O)C1C(=O)Nc1cccc(-c2ncc[nH]2)c1 (centres unmarked) [compound 149, N-(3-(1H-imidazol-2-yl)phenyl)-3-methyl-5-oxo-1-(3-(trifluoromethyl)phenyl)-4,5-dihydro-1H-pyrazole-4-carboxamide]
ACSS2 [1]
  IC50: > 100 nM
ACSS2 [2]
  IC50: 6 to 100 nM

## COC(=O)c1cccc(N2N=C(C)C(C(=O)Nc3cccc(-c4cnccn4)c3)C2=O)c1 (centres unmarked) [compound 164]
ACSS2 [1]
  IC50: > 100 nM
ACSS2 [2]
  IC50: 0.01 to 6 nM

## COC(=O)c1cccc(N2N=C(C)C(C(=O)Nc3cccc(-c4ncc[nH]4)c3)C2=O)c1 (centres unmarked) [compound 167]
ACSS2 [1]
  IC50: > 100 nM
ACSS2 [2]
  IC50: 0.01 to 6 nM

## CC1=NN(c2cccc(-c3ncco3)c2)C(=O)C1C(=O)Nc1cccc(-c2cnccn2)c1 (centres unmarked) [compound 227]
ACSS2 [1]
  IC50: 50 to 100 nM
ACSS2 [2]
  IC50: 0.01 to 6 nM

## CC1=NN(c2cccc(-c3ncco3)c2)C(=O)C1C(=O)Nc1cccc(-c2ccco2)c1 (centres unmarked) [compound 228]
ACSS2 [1]
  IC50: 0.5 to 50 nM
ACSS2 [2]
  IC50: 0.01 to 6 nM

## CC1=NN(c2cccc(-c3ncc(C)o3)c2)C(=O)C1C(=O)Nc1cccc(C(C)(F)F)c1 (centres unmarked) [compound 229]
ACSS2 [1]
  IC50: > 100 nM
ACSS2 [2]
  IC50: 0.01 to 6 nM

## CC1=NN(c2cccc(-c3ncco3)c2)C(=O)C1C(=O)Nc1cccc(C(C)(F)F)c1 (centres unmarked) [compound 230]
ACSS2 [1]
  IC50: 0.5 to 50 nM
ACSS2 [2]
  IC50: 0.01 to 6 nM

## CC1=NN(c2ccncc2)C(=O)C1C(=O)Nc1cccc(C(C)(F)F)c1 (centres unmarked) [compound 231]
ACSS2 [1]
  IC50: > 100 nM
ACSS2 [2]
  IC50: 6 to 100 nM

## CC1=NN(c2cccc(C(=O)OC(C)C)c2)C(=O)C1C(=O)Nc1cccc(-c2cnccn2)c1 (centres unmarked) [compound 234]
ACSS2 [1]
  IC50: > 100 nM
ACSS2 [2]
  IC50: 0.01 to 6 nM

## CC1=NN(c2cccc(C(=O)OC(C)C)c2)C(=O)C1C(=O)Nc1cccc(-c2ncc[nH]2)c1 (centres unmarked) [compound 235]
ACSS2 [1]
  IC50: > 100 nM
ACSS2 [2]
  IC50: 6 to 100 nM

## CC1=NN(c2cccc(C(=O)OC(C)C)c2)C(=O)C1C(=O)Nc1cccc(C(C)(F)F)c1 (centres unmarked) [compound 236]
ACSS2 [1]
  IC50: 0.5 to 50 nM
ACSS2 [2]
  IC50: 0.01 to 6 nM

## CC1=NN(c2cccc(C(=O)OC(C)C)c2)C(=O)C1C(=O)Nc1cccc(-c2ccco2)c1 (centres unmarked) [compound 237]
ACSS2 [1]
  IC50: > 100 nM
ACSS2 [2]
  IC50: 6 to 100 nM

## COc1ccc(N2N=C(C)C(C(=O)Nc3cccc(-c4cnccn4)c3)C2=O)cc1 (centres unmarked) [compound 241]
ACSS2 [1]
  IC50: 50 to 100 nM
ACSS2 [2]
  IC50: 0.01 to 6 nM

## COc1ccc(N2N=C(C)C(C(=O)Nc3cccc(C(C)(F)F)c3)C2=O)cn1 (centres unmarked) [compound 242]
ACSS2 [1]
  IC50: 0.5 to 50 nM
ACSS2 [2]
  IC50: 0.01 to 6 nM

## COc1ccc(N2N=C(C)C(C(=O)Nc3cccc(-c4cnccn4)c3)C2=O)cn1 (centres unmarked) [compound 243]
ACSS2 [1]
  IC50: > 100 nM
ACSS2 [2]
  IC50: 0.01 to 6 nM

## COc1ccc(N2N=C(C)C(C(=O)Nc3cccc(-c4ncc[nH]4)c3)C2=O)cn1 (centres unmarked) [compound 244]
ACSS2 [1]
  IC50: > 100 nM
ACSS2 [2]
  IC50: 6 to 100 nM

## COc1ccc(N2N=C(C)C(C(=O)Nc3cccc(-c4ccco4)c3)C2=O)cn1 (centres unmarked) [compound 246]
ACSS2 [1]
  IC50: 0.5 to 50 nM
ACSS2 [2]
  IC50: 0.01 to 6 nM

## COc1cccc(N2N=C(C)C(C(=O)Nc3cccc(-c4ccco4)c3)C2=O)c1 (centres unmarked) [compound 247]
ACSS2 [1]
  IC50: 0.5 to 50 nM
ACSS2 [2]
  IC50: 0.01 to 6 nM

## COc1cccc(N2N=C(C)C(C(=O)Nc3cccc(-c4ncc[nH]4)c3)C2=O)c1 (centres unmarked) [compound 248]
ACSS2 [1]
  IC50: > 100 nM
ACSS2 [2]
  IC50: 0.01 to 6 nM

## COc1cccc(N2N=C(C)C(C(=O)Nc3cccc(-c4cnccn4)c3)C2=O)c1 (centres unmarked) [compound 249]
ACSS2 [1]
  IC50: 0.5 to 50 nM
ACSS2 [2]
  IC50: 0.01 to 6 nM

## COc1cccc(N2N=C(C)C(C(=O)Nc3cccc(C(C)(F)F)c3)C2=O)c1 (centres unmarked) [compound 250]
ACSS2 [1]
  IC50: 0.5 to 50 nM
ACSS2 [2]
  IC50: 0.01 to 6 nM

## COc1cccc(N2N=C(C)C(C(=O)Nc3cccc(-c4ncco4)c3)C2=O)c1 (centres unmarked) [compound 251]
ACSS2 [1]
  IC50: 50 to 100 nM
ACSS2 [2]
  IC50: 6 to 100 nM

## CC1=NN(c2cccc(S(=O)(=O)N(C)C)c2)C(=O)C1C(=O)Nc1cccc(C(C)(F)F)c1 (centres unmarked) [compound 252]
ACSS2 [1]
  IC50: 50 to 100 nM
ACSS2 [2]
  IC50: 0.01 to 6 nM

## CC1=NN(c2ccc(S(=O)(=O)N(C)C)cc2)C(=O)C1C(=O)Nc1cccc(C(C)(F)F)c1 (centres unmarked) [compound 253]
ACSS2 [1]
  IC50: 0.5 to 50 nM
ACSS2 [2]
  IC50: 0.01 to 6 nM

## COc1ccc(N2N=C(C)C(C(=O)Nc3cccc(-c4ncc[nH]4)c3)C2=O)cc1 (centres unmarked) [compound 255]
ACSS2 [1]
  IC50: > 100 nM
ACSS2 [2]
  IC50: 6 to 100 nM

## CC1=NN(c2cccc(C(F)(F)F)c2)C(=O)C1C(=O)Nc1cccc(-c2ncco2)c1 (centres unmarked) [compound 257]
ACSS2 [1]
  IC50: > 100 nM
ACSS2 [2]
  IC50: 6 to 100 nM

## CC1=NN(c2cccc(C(=O)O)c2)C(=O)C1C(=O)Nc1cccc(C(C)(F)F)c1 (centres unmarked) [compound 258]
ACSS2 [1]
  IC50: > 100 nM
ACSS2 [2]
  IC50: 0.01 to 6 nM

## COC(=O)c1cccc(N2N=C(C)C(C(=O)Nc3cccc(-c4ncco4)c3)C2=O)c1 (centres unmarked) [compound 259]
ACSS2 [1]
  IC50: > 100 nM
ACSS2 [2]
  IC50: 6 to 100 nM

## COC(=O)c1cccc(N2N=C(C)C(C(=O)Nc3cccc(C(C)(F)F)c3)C2=O)c1 (centres unmarked) [compound 261]
ACSS2 [1]
  IC50: 0.5 to 50 nM
ACSS2 [2]
  IC50: 0.01 to 6 nM

## CC1=NN(c2cccc(S(=O)(=O)N(C)C)c2)C(=O)C1C(=O)Nc1cccc(-c2ccco2)c1 (centres unmarked) [compound 263]
ACSS2 [1]
  IC50: 0.5 to 50 nM
ACSS2 [2]
  IC50: 6 to 100 nM

## CC1=NN(c2ccc(C(F)(F)F)cc2)C(=O)C1C(=O)Nc1cccc(C(C)(F)F)c1 (centres unmarked) [compound 264]
ACSS2 [1]
  IC50: 0.5 to 50 nM
ACSS2 [2]
  IC50: 0.01 to 6 nM

## COc1ccc(N2N=C(C)C(C(=O)Nc3cccc(-c4ccco4)c3)C2=O)cc1 (centres unmarked) [compound 266]
ACSS2 [1]
  IC50: 0.5 to 50 nM
ACSS2 [2]
  IC50: 0.01 to 6 nM

## COC(=O)c1cccc(N2N=C(C)C(C(=O)Nc3cccc(-c4ccco4)c3)C2=O)c1 (centres unmarked) [compound 269]
ACSS2 [1]
  IC50: 0.5 to 50 nM
ACSS2 [2]
  IC50: 0.01 to 6 nM

## CC1=NN(c2cccc(C(F)(F)F)c2)C(=O)C1C(=O)Nc1cccc(C(C)(F)F)c1 (centres unmarked) [compound 271]
ACSS2 [1]
  IC50: 0.5 to 50 nM
ACSS2 [2]
  IC50: 0.01 to 6 nM

## CC1=NN(c2cccc(-c3ncco3)c2)C(=O)C1C(=O)Nc1cccc(-c2ncc[nH]2)c1 (centres unmarked) [compound 279]
ACSS2 [1]
  IC50: > 100 nM
ACSS2 [2]
  IC50: 6 to 100 nM

## CC1=NN(c2cccc(-c3nnc(C)o3)c2)C(=O)C1C(=O)Nc1cccc(C(C)(F)F)c1 (centres unmarked) [compound 280]
ACSS2 [1]
  IC50: 0.5 to 50 nM
ACSS2 [2]
  IC50: 0.01 to 6 nM

## [2H]C([2H])([2H])Oc1ccc(N2N=C(C)C(C(=O)Nc3cccc(C(C)(F)F)c3)C2=O)cc1 (centres unmarked) [compound 286]
ACSS2 [1]
  IC50: 0.5 to 50 nM
ACSS2 [2]
  IC50: 0.01 to 6 nM

## COc1ccc(N2N=C(C)C(C(=O)Nc3cccc(C(C)(F)F)c3)C2=O)cc1OC (centres unmarked) [compound 287]
ACSS2 [1]
  IC50: 0.5 to 50 nM
ACSS2 [2]
  IC50: 0.01 to 6 nM

## CC1=NN(c2cccc(-c3nccn3C)c2)C(=O)C1C(=O)Nc1cccc(C(C)(F)F)c1 (centres unmarked) [compound 289]
ACSS2 [1]
  IC50: 0.5 to 50 nM
ACSS2 [2]
  IC50: 0.01 to 6 nM

## CC1=NN(c2ccc(OC(F)(F)F)c(-c3ncco3)c2)C(=O)C1C(=O)Nc1cccc(C(C)(F)F)c1 (centres unmarked) [compound 291]
ACSS2 [1]
  IC50: 0.5 to 50 nM
ACSS2 [2]
  IC50: 0.01 to 6 nM

## CC1=NN(c2ccc(OC(F)(F)F)c(-c3ncco3)c2)C(=O)C1C(=O)Nc1cccc(-c2ccco2)c1 (centres unmarked) [compound 292]
ACSS2 [1]
  IC50: 0.5 to 50 nM
ACSS2 [2]
  IC50: 0.01 to 6 nM

## CC1=NN(c2ccc(-c3nnn[nH]3)cc2)C(=O)C1C(=O)Nc1cccc(C(C)(F)F)c1 (centres unmarked) [compound 297]
ACSS2 [1]
  IC50: > 100 nM
ACSS2 [2]
  IC50: 0.01 to 6 nM

## CC1=NN(c2ccc(OC(F)F)cc2)C(=O)C1C(=O)Nc1cccc(C(C)(F)F)c1 (centres unmarked) [compound 298]
ACSS2 [1]
  IC50: 0.5 to 50 nM
ACSS2 [2]
  IC50: 0.01 to 6 nM

## COc1ccc(N2N=C(C)C(C(=O)Nc3cccc(C(C)(F)F)c3)C2=O)cc1-c1nccn1C (centres unmarked) [compound 300]
ACSS2 [1]
  IC50: 0.5 to 50 nM
ACSS2 [2]
  IC50: 0.01 to 6 nM

## COc1ccc(N2N=C(C)C(C(=O)Nc3cccc(C(C)(F)F)c3)C2=O)cc1-c1ncco1 (centres unmarked) [compound 301]
ACSS2 [1]
  IC50: 0.5 to 50 nM
ACSS2 [2]
  IC50: 0.01 to 6 nM

## COc1ccc(N2N=C(C)C(C(=O)Nc3cccc(C(C)(F)F)c3)C2=O)cc1C (centres unmarked) [compound 303]
ACSS2 [1]
  IC50: 0.5 to 50 nM
ACSS2 [2]
  IC50: 0.01 to 6 nM

## COc1ccc(N2N=C(C)C(C(=O)Nc3cccc(C(C)(F)F)c3)C2=O)nc1 (centres unmarked) [compound 304]
ACSS2 [1]
  IC50: 0.5 to 50 nM
ACSS2 [2]
  IC50: 0.01 to 6 nM

## CC1=NN(c2ccc(OC(F)F)c(-c3ccccn3)c2)C(=O)C1C(=O)Nc1cccc(C(C)(F)F)c1 (centres unmarked) [compound 327]
ACSS2 [1]
  IC50: 0.5 to 50 nM

## CC1=NN(c2ccc(OC(F)F)c(-c3cnccn3)c2)C(=O)C1C(=O)Nc1cccc(C(C)(F)F)c1 (centres unmarked) [compound 328]
ACSS2 [1]
  IC50: 0.5 to 50 nM

## CCC(F)(F)c1cccc(NC(=O)C2C(=O)N(c3ccc(OC)cc3)N=C2C)c1 (centres unmarked) [compound 330]
ACSS2 [1]
  IC50: 0.5 to 50 nM

## COc1ccc(N2N=C(C)C(C(=O)Nc3cccc(C(C)(F)F)c3)C2=O)cc1-c1ccccn1 (centres unmarked) [compound 331]
ACSS2 [1]
  IC50: 0.5 to 50 nM

## COc1ccc(N2N=C(C)C(C(=O)Nc3cccc(C(C)(F)F)c3)C2=O)cc1-c1cnccn1 (centres unmarked) [compound 332]
ACSS2 [1]
  IC50: 0.5 to 50 nM

From patent US10851064B2, “ACSS2 inhibitors and methods of use thereof” (METABOMED LTD., priority 2017, dated 2020)
